# Data published in ChEMBL document CHEMBL6092166, “Design, synthesis and enzymatic inhibition evaluation of novel 4-hydroxy Pd-C-Ⅲ derivatives as α-glucosidase and PTP1B dual-target inhibitors” (Eur J Med Chem, 2024).
# Calls of active or inactive are those of the source. The rule behind the calls is not given here.
# What was measured:
# [1] = molecular target: T1, Tyrosine-protein phosphatase non-receptor type 1 (Homo sapiens, UniProt P18031); experiment: Inhibition of PTP1B (unknown origin) using pNPP as substrate preincubated for 10 mins followed by substrate addition for 20 mins by absorbance based analysis
# T1 sequence (P18031 whole entry): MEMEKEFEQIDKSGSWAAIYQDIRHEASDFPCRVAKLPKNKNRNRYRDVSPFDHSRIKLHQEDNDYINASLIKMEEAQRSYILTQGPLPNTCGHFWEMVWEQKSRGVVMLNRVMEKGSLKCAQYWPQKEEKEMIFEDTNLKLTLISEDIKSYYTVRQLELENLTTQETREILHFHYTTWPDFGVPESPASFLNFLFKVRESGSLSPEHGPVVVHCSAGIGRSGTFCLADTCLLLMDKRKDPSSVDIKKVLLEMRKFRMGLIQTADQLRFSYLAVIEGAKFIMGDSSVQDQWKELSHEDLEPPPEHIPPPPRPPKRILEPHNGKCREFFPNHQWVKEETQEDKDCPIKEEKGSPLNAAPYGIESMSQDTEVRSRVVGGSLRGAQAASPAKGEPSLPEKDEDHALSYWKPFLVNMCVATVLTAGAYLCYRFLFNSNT
# [2] = molecular target: T2, Alpha glucosidase (Homo sapiens, UniProt O43451+P10253+P14410+Q2M2H8); experiment: Inhibition of alpha-glucosidase (unknown origin) using p-NPG as substrate incubated for 15 mins by spectrophotometric analysis; format: protein assay
# [3] = molecular target: T2, Alpha glucosidase; experiment: Inhibition of alpha-glucosidase (unknown origin) using p-NPG as substrate preincubated for 15 mins followed by substrate addition for 30 mins by absorbance based analysis; format: protein assay
# [4] = molecular target: T2, Alpha glucosidase; experiment: Binding affinity to alpha-glucosidase (unknown origin) assessed as Stem-Volmer quenching constant by fluorescence based analysis; format: protein assay
# [5] = molecular target: T2, Alpha glucosidase; experiment: Inhibition of alpha-glucosidase (unknown origin) activity assessed as disruption of secondary structure by measuring beta-sheet content at 50 uM by Circular dichroism spectra analysis (reference value: 13.9%); format: protein assay; design: scale not given: the % may be the effect or the level left
# [6] = molecular target: T2, Alpha glucosidase; experiment: Inhibition of alpha-glucosidase (unknown origin) activity assessed as disruption of secondary structure by measuring beta-sheet content at 40 uM by Circular dichroism spectra analysis (reference value: 13.9%); format: protein assay; design: scale not given: the % may be the effect or the level left
# [7] = molecular target: T2, Alpha glucosidase; experiment: Inhibition of alpha-glucosidase (unknown origin) activity assessed as disruption of secondary structure by measuring random coil content at 50 uM by Circular dichroism spectra analysis (reference value: 27.1%); format: protein assay; design: scale not given: the % may be the effect or the level left
# [8] = molecular target: T2, Alpha glucosidase; experiment: Inhibition of alpha-glucosidase (unknown origin) activity assessed as disruption of secondary structure by measuring random coil content at 10 uM by Circular dichroism spectra analysis (reference value: 27.1%); format: protein assay; design: scale not given: the % may be the effect or the level left
# [9] = molecular target: T2, Alpha glucosidase; experiment: Mixed inhibition of alpha-glucosidase (unknown origin) using p-NPG as substrate at 0 to 20 uM incubated for 15 mins by Lineweaver-Burk double reciprocal plot analysis; format: protein assay; conditions: dose 0-20 µM
# [10] = molecular target: T2, Alpha glucosidase; experiment: Inhibition of alpha-glucosidase (unknown origin) activity assessed as disruption of secondary structure by measuring beta-turn content at 40 uM by Circular dichroism spectra analysis (reference value: 15.8%); format: protein assay; design: scale not given: the % may be the effect or the level left
# [11] = molecular target: T2, Alpha glucosidase; experiment: Binding affinity to alpha-glucosidase (unknown origin) assessed as decreased fluorescence intensity by measuring peak 1 (lamda ex/lamda em: 315/375 nm) and peak 2 ((lamda ex/lamda em: 225/395 nm) by 3D fluorescence spectra analysis; format: protein assay
# [12] = test system: Mus musculus; experiment: Reduction in blood glucose concentration in male Kunming mouse assessed as decrease in glucose AUC at 20 mg/kg preadministered for 40 mins and measured after 120 mins by sucrose loading test relative to control; format: functional, organism-based
# [13] = molecular target: T3, Tyrosine-protein phosphatase non-receptor type 1 (Homo sapiens) (UniProt P18031); experiment: Inhibition of PTP1B (unknown origin) in human HepG2 cells assessed as downregulation of PTP1B protein level at 50 uM at 40 to 60 degreeC incubated for 6 hrs by Western blot based Cellular thermal shift assay; format: cell-based
# T3 sequence (whole entry): T1 sequence (P18031 whole entry)
# [14] = test system: Mus musculus; experiment: Reduction in blood glucose concentration in male Kunming mouse at 20 mg/kg preadministered for 40 mins and measured after 120 mins by sucrose loading test; format: functional, organism-based
# [15] = molecular target: T1, Tyrosine-protein phosphatase non-receptor type 1; experiment: Inhibition of PTP1B (unknown origin)
# [16] = molecular target: T2, Alpha glucosidase; experiment: Inhibition of alpha-glucosidase (unknown origin) activity assessed as disruption of secondary structure by measuring beta-turn content at 30 uM by Circular dichroism spectra analysis (reference value: 15.8%); format: protein assay; design: scale not given: the % may be the effect or the level left
# [17] = molecular target: T2, Alpha glucosidase; experiment: Inhibition of alpha-glucosidase (unknown origin) activity assessed as disruption of secondary structure by measuring alpha-helix content at 50 uM by Circular dichroism spectra analysis (reference value: 40.0%); format: protein assay; design: scale not given: the % may be the effect or the level left
# [18] = molecular target: T2, Alpha glucosidase; experiment: Binding affinity to alpha-glucosidase (unknown origin) using p-NPG as substrate assessed as enzyme-substrate complex inhibition constant at 0 to 20 uM incubated for 15 mins by Lineweaver-Burk double reciprocal plot analysis; format: protein assay; conditions: dose 0-20 µM
# [19] = molecular target: T2, Alpha glucosidase; experiment: Binding affinity to alpha-glucosidase (unknown origin) assessed as quenching constant by fluorescence based analysis; format: protein assay
# [20] = molecular target: T2, Alpha glucosidase; experiment: Binding affinity to alpha-glucosidase (unknown origin) assessed as collision quenching by fluorescence based analysis; format: protein assay
# [21] = molecular target: T2, Alpha glucosidase; experiment: Mixed inhibition of alpha-glucosidase (unknown origin) using p-NPG as substrate assessed as increased in Km and decreased in Vmax at 0 to 20 uM incubated for 15 mins by Lineweaver-Burk double reciprocal plot analysis; format: protein assay; conditions: dose 0-20 µM
# [22] = molecular target: T2, Alpha glucosidase; experiment: Inhibition of alpha-glucosidase (unknown origin) activity assessed as disruption of secondary structure by measuring beta-sheet content at 30 uM by Circular dichroism spectra analysis (reference value: 13.9%); format: protein assay; design: scale not given: the % may be the effect or the level left
# [23] = molecular target: T2, Alpha glucosidase; experiment: Inhibition of alpha-glucosidase (unknown origin) activity assessed as disruption of secondary structure by measuring random coil content at 40 uM by Circular dichroism spectra analysis (reference value: 27.1%); format: protein assay; design: scale not given: the % may be the effect or the level left
# [24] = molecular target: T2, Alpha glucosidase; experiment: Inhibition of alpha-glucosidase (unknown origin) activity assessed as disruption of secondary structure by measuring beta-turn content at 50 uM by Circular dichroism spectra analysis (reference value: 15.8%); format: protein assay; design: scale not given: the % may be the effect or the level left
# [25] = molecular target: T2, Alpha glucosidase; experiment: Binding affinity to alpha-glucosidase (unknown origin) using p-NPG as substrate assessed as free inhibition constant at 0 to 20 uM incubated for 15 mins by Lineweaver-Burk double reciprocal plot analysis; format: protein assay
# [26] = molecular target: T2, Alpha glucosidase; experiment: Inhibition of alpha-glucosidase (unknown origin) activity assessed as disruption of secondary structure by measuring beta-turn content at 10 uM by Circular dichroism spectra analysis (reference value: 15.8%); format: protein assay; design: scale not given: the % may be the effect or the level left
# [27] = Inhibition of alpha-amylase (unknown origin); design: species or system Homo sapiens
# [28] = molecular target: T2, Alpha glucosidase; experiment: Inhibition of alpha-glucosidase (unknown origin) activity assessed as disruption of secondary structure by measuring random coil content at 30 uM by Circular dichroism spectra analysis (reference value: 27.1%); format: protein assay; design: scale not given: the % may be the effect or the level left
# [29] = molecular target: T2, Alpha glucosidase; experiment: Binding affinity to alpha-glucosidase (unknown origin) by fluorescence based analysis; format: protein assay
# [30] = molecular target: T2, Alpha glucosidase; experiment: Binding affinity to alpha-glucosidase (unknown origin) assessed as fluorescence intensity at 12.5 uM by fluorescence based analysis (reference value: 313.09); format: protein assay
# [31] = molecular target: T2, Alpha glucosidase; experiment: Inhibition of alpha-glucosidase (unknown origin) activity assessed as disruption of secondary structure by measuring beta-sheet content at 10 uM by Circular dichroism spectra analysis (reference value: 13.9%); format: protein assay; design: scale not given: the % may be the effect or the level left
# [32] = molecular target: T2, Alpha glucosidase; experiment: Inhibition of alpha-glucosidase (unknown origin) activity assessed as disruption of secondary structure by measuring alpha-helix content at 10 uM by Circular dichroism spectra analysis (reference value: 40.0%); format: protein assay; design: scale not given: the % may be the effect or the level left
# [33] = molecular target: T2, Alpha glucosidase; experiment: Binding affinity to alpha-glucosidase (unknown origin) assessed as association constant by fluorescence based analysis; format: protein assay
# [34] = molecular target: T2, Alpha glucosidase; experiment: Inhibition of alpha-glucosidase (unknown origin) activity assessed as disruption of secondary structure by measuring alpha-helix content at 40 uM by Circular dichroism spectra analysis (reference value: 40.0%); format: protein assay; design: scale not given: the % may be the effect or the level left
# [35] = molecular target: T2, Alpha glucosidase; experiment: Inhibition of alpha-glucosidase (unknown origin) activity assessed as disruption of secondary structure by measuring alpha-helix content at 30 uM by Circular dichroism spectra analysis (reference value: 40.0%); format: protein assay; design: scale not given: the % may be the effect or the level left
# [36] = Cytotoxicity against human HEK293 cells assessed as cell survival at 250 uM incubated for 24 hrs by MTT assay; format: toxicity, cell-based; conditions: read-out: Survival
smiles,measurement,setting,value
CO[C@@H]1c2cc3ccc(=O)oc3cc2OC(C)(C)[C@H]1OC(=O)C=C(C)C,IC50,[1],6.6 µM
same,IC50,[2],89.2 µM
COc1cc(/C=C/C(=O)OCCOc2ccc3ccc(=O)oc3c2)ccc1O,IC50,[3],> 300 µM
O=C(/C=C/c1cccc(Br)c1)OCCOc1ccc2ccc(=O)oc2c1,IC50,[3],132.7 µM
Cc1c(C)c2c(C)cc(OCCOC(=O)/C=C/c3ccc(Cl)cc3Cl)cc2oc1=O,KSV,[4],9.7 10^4L/mol
same,Activity,[5],20.9%
same,Activity,[6],20.2%
same,IC50,[3],66.3 µM
same,Activity,[7],36.3%
same,Activity,[8],29.1%
same,inhibition,[9],Active; Intersection In Second Quadrant Of Double Reciprocal Graph Observed; Compound Binds To Free Enzyme And Enzyme-Substrate Complex
same,Activity,[10],17.8%
same,inhibition,[11],Active; Peak 1 Reflected The Absorption Peak Of Tyrosine Residues And Tryptophan Residues And Peak 2 Was Fluorescence Feature Of Polypeptide Backbone Structure
same,Activity,[12],Active
same,inhibition,[13],Active
same,Activity,[14],Active
same,IC50,[15],47 µM
same,Activity,[16],17.1%
same,Activity,[17],27.6%
same,Kis,[18],0.17 µM
same,Kq,[19],9.7 10^12L/mol/s
same,K,[20],2 10^10L/mol/s
same,inhibition,[21],Active
same,Activity,[22],17.9%
same,Activity,[23],35.4%
same,Activity,[24],18%
same,Ki,[25],0.25 µM
same,Activity,[26],16.3%
same,IC50,[27],30.6 µM
same,Activity,[28],32.7%
same,Activity,[29],Active; Wavelength Of Maximum Emission Peak Red Shifted From 335 Nm To 340 Nm
same,Flu intensity,[30],144
same,Activity,[31],15.3%
same,Activity,[32],37.1%
same,ka,[33],2.09 10^3L/mol
same,Activity,[34],28.3%
same,Activity,[35],32.2%
same,"viability at 24 h, 250 µM",[36],81.8%
C/C=C\C(=O)O[C@H]1[C@H](O)c2cc3ccc(=O)oc3cc2OC1(C)C,IC50,[1],5.4 µM
same,IC50,[2],77.3 µM
C[C@H]1O[C@H](O[C@H]2[C@H](O)[C@@H](O)[C@@H](O[C@H]3[C@H](O)[C@@H](O)C(O)O[C@@H]3CO)O[C@@H]2CO)[C@H](O)[C@@H](O)[C@@H]1N[C@H]1C=C(CO)[C@@H](O)[C@H](O)[C@H]1O (some centres not stated) [ACARBOSE],Activity,[12],Active
same,Activity,[14],Active
same,IC50,[27],17.8 µM
CCCc1cc(=O)oc2cc(OCCOC(=O)/C=C/c3ccc(Cl)cc3Cl)ccc12,IC50,[3],> 300 µM
O=C(OCCCOc1ccc2ccc(=O)oc2c1)c1ccc(Cl)cc1Cl,IC50,[3],> 300 µM
O=C(/C=C/c1ccc2ccccc2c1)OCCOc1ccc2ccc(=O)oc2c1,IC50,[3],> 300 µM
O=C(/C=C/c1cccc(Cl)c1)OCCOc1ccc2ccc(=O)oc2c1,IC50,[3],> 300 µM
COc1ccc(/C=C/C(=O)OCCOc2ccc3ccc(=O)oc3c2)cc1Br,IC50,[3],286.2 µM
O=C(/C=C/c1ccc(F)cc1)OCCOc1ccc2ccc(=O)oc2c1,IC50,[3],> 300 µM
O=C(/C=C/c1ccc(Cl)cc1Cl)OCCCOc1ccc2ccc(=O)oc2c1,IC50,[3],> 300 µM
Cc1cc(OCCOC(=O)/C=C/c2ccc(Cl)cc2Cl)cc2oc(=O)cc(C)c12,IC50,[3],124.1 µM
O=C(/C=C/c1ccccc1)OCCOc1ccc2ccc(=O)oc2c1,IC50,[3],235.6 µM
